Experimental data as given in patent US20060014231A1, “Methods and compositions to promote bone homeostasis” (priority 2004, published 2006).

Tests used:
[1] = test system: primary human MPCs; assay: Mineralization assay (Alizarin RedS / Von Kossa stain); format: cell-based; details: MPCs with NR1H3 and ligand
Protocol: On day one, primary human MPCs are seeded in a 6 well plate (Costar or Nunc) at a density of 50,000 to 250,000 cells per well, typically at 100,000 cells per well. MPCs are co-infected one day later with AdC15-hCAR (MOI 750) and Ad-control (eGFP or BMP2) or hit-virus (Ad5) (at MOIs between 250 and 20,000, typically at MOIs 5000 and 2500). For Ad-GPCR or Ad-NHR experiments, cells can additionally be treated with specific ligands. These are added at the EC50 concentration and at concentrations 5-10 times higher and lower. Ligands are added 2-3 times per week. Medium supplemented with 100 μg/ml L-ascorbate and 10 mM beta-glycerophosphate, is refreshed 2 times a week. 20 to 30 days after the start of the experiment, cells are stained with Von Kossa stain or with Alizarin RedS stain.
The Alizarin RedS staining is carried out as follows: cells are washed once with PBS, fixed with 10% paraformaldehyde for 45 minutes at 4° C., and washed 2 times with PBS. Cells are incubated with 40 mM aqueous Alizarin RedS solution, pH 4.1-4.3 for 10 minutes followed by 5 washes with distilled water. Staining is evaluated and photographed using white light.

[2] = biological target: T1, NR1H3 (Homo sapiens, UniProt Q13133); assay: Alkaline phosphatase (AP) assay in MPCs infected with Ad-NR1H3 and treated with ligand; format: cell-based
T1 construct: amplification of the complete open reading frame from ATG start codon to the stop codon of drugable genes; expressed in transfected cells; host or cells: primary human bone-marrow mesenchymal progenitor cells (MPCs), adenoviral transduction (Ad5-NR1H3 with Ad-hCAR)
T1 sequence (Q13133 1-447): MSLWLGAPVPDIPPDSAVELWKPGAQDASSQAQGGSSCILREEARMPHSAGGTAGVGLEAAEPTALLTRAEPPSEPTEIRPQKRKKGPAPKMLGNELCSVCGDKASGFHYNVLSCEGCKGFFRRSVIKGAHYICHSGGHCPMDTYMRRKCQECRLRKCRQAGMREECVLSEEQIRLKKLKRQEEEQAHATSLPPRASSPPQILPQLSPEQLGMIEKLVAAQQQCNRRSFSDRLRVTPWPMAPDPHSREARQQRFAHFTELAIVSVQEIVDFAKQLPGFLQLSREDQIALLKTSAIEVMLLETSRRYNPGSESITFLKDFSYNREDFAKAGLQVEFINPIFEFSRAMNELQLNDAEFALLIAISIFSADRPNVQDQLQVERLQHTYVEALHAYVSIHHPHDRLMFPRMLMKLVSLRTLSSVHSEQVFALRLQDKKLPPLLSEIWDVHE
Protocol: Cellular AP activity is determined 6 days after the infection (or ligand addition—see below). The principle of the assays is depicted in FIG. 2. Mesenchymal stem cells derived from bone marrow are infected with the FLeXSelect™ cDNA library viruses in the presence of Ad5C15-hCAR or Ad5C20-hCAR virus. Six days after the start of infection or treatment with a ligand, endogenous alkaline phosphatase activity is measured following addition of 4-methylumbelliferyl […] (MUP) substrate.
The stocks of the Ad-control-viruses are generated in 96 well plates (control plate). The 2 μl volume corresponds to a theoretical MOI of 5000. Controls are: P1=Ad-BMP2; P2=Ad-H4-2; P3=Ad-H4-291; N1=Ad-LacZ; N2=Ad-empty; N3=Ad-eGFP. Up-regulation of alkaline phosphatase is read at 6 days post infection (6 dpi): 15 μl 4-Methylumbelliferyl-phosphate (MUP, Sigma) is added to each well, the plates are incubated for 15 min at 37° C. and monitored for AP activity using a fluorescence plate reader (Fluostar, BMG).
These dose-response curves are depicted in FIG. 5. […] MPCs are seeded on day 0 at 1000 cells per well of a 384 well plate and co-infected the next day using AdC51-hCAR (MOI 250) and different MOIs of Ad5-NR1H3 (MOI 12000, 4000, 1333, 444).
After 6 days, medium is removed and replaced with fresh medium containing the same concentrations of the compound GW3965. Readouts of AP activity are performed at several time points after the start of the experiment, typically after 7, 10 and 13 days.
After 6 days, medium is removed and replaced with fresh medium containing the same concentrations of the compound APD.

SMILES: O=S(=O)(c1ccccc1)N(CC(F)(F)F)c1ccc(C(O)(C(F)(F)F)C(F)(F)F)cc1 [T0901317]
- mineralization [1]: score well
- induction of AP activity in MPC isolates from 4 different donors ([2]; Ad-NR1H3 MOI 2500 + T0901317 at different concentrations, 6 days): induce AP activity to similar extents
- up-regulation of endogenous alkaline phosphatase (AP) activity ([2]; MPCs infected with Ad-NR1H3, increasing ligand concentrations, MUP fluorescence readout): dose-dependently increase
